Converted amounts (≈) assume the structure as drawn. Where two headings read alike, the source gives them in different places. Bridge positions count the residues as written; N and C are the ends. Square brackets hold non-standard residues; d marks the D form. Peptide text beside a SMILES is read from it. * marks the point of attachment. Ileψ(thiazoline)Cys = CC[C@H](C)[C@H](N)C1=N[C@H](C(=O)*)CS1; dOrn = NCCC[C@@H](N)C(=O)O
Experiments:
[1] = mouse, in vivo
[2] = tested on: S. aureus 2620 (methicillin resistant strain); experiment: MIC; type: cell-based; settings: Staphylococcus aureus
Source text: (§1) In vitro minimum inhibitory concentrations (MIC) of the AAD-609 complex and of Factors A, B, CC2 and D, using standard microtiter assay procedures, against a number of microorganisms are reported in Table A, which follows.

[3] = 30:70 acetonitrile:water
[4] = tested on: S. faecalis 34358; experiment: In vitro MIC, standard microtiter assay; type: cell-based, Streptococcus faecalis
Source text: as §1

[5] = tested on: Staphylococcus aureus HH127; experiment: In vitro MIC, standard microtiter assay; type: cell-based
Source text: as §1

[6] = tested on: Clostridium difficile; experiment: In vitro MIC, standard microtiter assay; type: cell-based; settings: Clostridioides difficile
Source text: as §1

[7] = tested on: Streptococcus faecalis 657; experiment: In vitro MIC, standard microtiter assay; type: cell-based; settings: Enterococcus faecalis, 657
Source text: as §1

[8] = tested on: Salmonella gallinarum BC-595; experiment: In vitro MIC, standard microtiter assay; type: cell-based; settings: Salmonella enterica, GALLINARUM
Source text: as §1

[9] = tested on: Escherichia coli 12140; experiment: In vitro MIC, standard microtiter assay; type: cell-based; settings: Escherichia coli, 12140
Source text: as §1

[10] = tested on: S. epidermidis 2683; experiment: In vitro MIC, standard microtiter assay; type: cell-based; settings: Staphylococcus epidermidis, 2683
Source text: as §1

[11] = tested on: S. epidermidis 2479; experiment: In vitro MIC, standard microtiter assay; type: cell-based
Source text: as §1

[12] = tested on: S. epidermidis 651 (methicillin resistant strain); experiment: In vitro MIC, standard microtiter assay; type: cell-based
Source text: as §1

[13] = tested on: S. epidermidis 2265; experiment: In vitro MIC, standard microtiter assay; type: cell-based; settings: Staphylococcus epidermidis, 2265
Source text: as §1

[14] = tested on: S. aureus 675; experiment: In vitro MIC, standard microtiter assay; type: cell-based, Staphylococcus aureus; settings: Staphylococcus aureus, 675
Source text: as §1

[15] = tested on: S. aureus 209P; experiment: In vitro MIC, standard microtiter assay; type: cell-based, Staphylococcus aureus; settings: Staphylococcus aureus, 209P
Source text: as §1

[16] = tested on: S. aureus 674; experiment: In vitro MIC, standard microtiter assay; type: cell-based, Staphylococcus aureus; settings: Staphylococcus aureus, 674
Source text: as §1

[17] = tested on: S. aureus 910 (methicillin resistant strain); experiment: In vitro MIC, standard microtiter assay; type: cell-based, Staphylococcus aureus; settings: Staphylococcus aureus
Source text: as §1

[18] = tested on: pigs; settings: pig, in vivo; cited from earlier work
[19] = tested on: S. faecalis 34358; experiment: Mouse protection test; type: in vivo; settings: Enterococcus faecalis, 34358, sc
Source text: (§2) in mouse protection tests^1
(§3) ^1 Mice dosed 1 and 5 H post infection s.c.; ED50, mg/kg.

[20] = tested on: S. aureus HH127; experiment: Mouse protection test; type: in vivo; settings: Staphylococcus aureus, HH127, sc
Source text: as §2, §3

[21] = tested on: S. epidermidis 2479; experiment: Mouse protection test; type: in vivo; settings: Staphylococcus epidermidis, 2479, sc
Source text: as §2, §3

[22] = tested on: S. epidermidis 651 (methicillin resistant strain); experiment: Mouse protection test; type: in vivo; settings: Staphylococcus epidermidis, sc
Source text: as §2, §3

[23] = tested on: S. aureus 2620 (methicillin resistant strain); experiment: Mouse protection test; type: in vivo; settings: Staphylococcus aureus, sc
Source text: as §2, §3

[24] = comparators, source not given; cited from earlier work
[25] = tested on: SK&F-AAD-609; experiment: Susceptibility of SK&F-AAD-609 to antibiotics (diffusion method, BBL susceptibility disks); type: cell-based, Kibdelosporangium aridum subsp. largum; settings: disk 30 μg; 28° C., one week
Description: Susceptibility of SK&F-AAD-609 to antibiotics was examined by placing BBL susceptibility disks on nutrient agar plates seeded with SK&F-ADD-609 as an agar overlay. Plates were placed at 4° C. for one hour to permit diffusion of the anitbiotics and, subsequently, incubated at 28° C. Diameters of the zones of inhibition were measured after incubation for one week.
Susceptibility to Antibiotics. […] Chlortetracycline (5 μg) produced 17-18 mm zones of inhibition; tetracycline (5 μg) 9-12 mm zones; rifampin (5 μg) 10-12 mm zones; novobiocin (5 μg) 30-35 mm zones. All zones of inhibition contained at least a few resistant colonies.

[26] = Pharmacokinetics in mice
[27] = Table B, methicillin resistant strain

For `CCCCCCCCCC(=O)NC1C(Oc2c3cc4cc2Oc2c(Cl)cc(cc2Cl)C(O)C2NC(=O)C(NC(=O)C4NC(=O)C4NC(=O)C(NC(=O)C(NC)c5ccc(O)c(c5)Oc5cc(O)c(Cl)c4c5)C(O)c4ccc(c(Cl)c4)O3)c3ccc(O)c(c3)-c3c(OC4OC(CO)C(O)C(O)C4O)cc(O)cc3C(C(=O)O)NC2=O)OC(CO)C(O)C1O` (stereo not shown) [AAD-609 A], the Elimination half-life [1] was 1.93 h, the Maximum serum concentration [1] was 90 µg/mL and the MIC ([2]; Table B, methicillin resistant strain, read-out: MIC) was 2 µg/mL (≈ 1.13 µM). The “pKa (A) carboxyl on aglycone” value [3] was 3.4, the “pKa (C) amino group on aglycone” value [3] was 7.1 and the MIC ([4]; Enterococcus faecalis, 34358, Table A, read-out: MIC) was 0.4 µg/mL (≈ 0.225 µM). For the same molecule, the MIC ([4]; Table B) was 0.4 µg/mL (≈ 0.225 µM), the MIC ([5]; Staphylococcus aureus, HH127, Table A, read-out: MIC) was 1.6 µg/mL (≈ 0.901 µM) and the MIC ([5]; Table B) was 1.6 µg/mL (≈ 0.901 µM). It also gave an MIC ([6]; Table A, read-out: MIC) of 0.5 µg/mL (≈ 0.282 µM), an MIC ([7]; Table A, read-out: MIC) of 0.4 µg/mL (≈ 0.225 µM) and an MIC ([8]; Table A, read-out: MIC) greater than 100 µg/mL. The MIC ([9]; Table A, read-out: MIC) was greater than 100 µg/mL, the MIC ([10]; Table A, read-out: MIC) was 24 µg/mL (≈ 13.5 µM) and the MIC ([11]; Staphylococcus epidermidis, 2479, Table A, read-out: MIC) was 12.5 µg/mL (≈ 7.04 µM). It also gave an MIC ([11]; Table B) of 12.5 µg/mL (≈ 7.04 µM), an MIC ([12]; Staphylococcus epidermidis, Table A, methicillin resistant strain, read-out: MIC) of 50 µg/mL (≈ 28.2 µM) and an MIC [12, 27] of 50 µg/mL (≈ 28.2 µM). The MIC ([13]; Table A, read-out: MIC) was 25 µg/mL (≈ 14.1 µM), the MIC ([14]; Table A, read-out: MIC) was 6.3 µg/mL (≈ 3.55 µM) and the MIC ([15]; Table A, read-out: MIC) was 0.4 µg/mL (≈ 0.225 µM). It also gave an MIC ([16]; Table A, read-out: MIC) of 0.8 µg/mL (≈ 0.451 µM) and an MIC ([17]; Table A, methicillin resistant strain, read-out: MIC) of 1.6 µg/mL (≈ 0.901 µM).

In the case of `CC[C@H](C)[C@H](N)C1=N[C@H](C(=O)N[C@@H](CC(C)C)C(=O)N[C@H](CCC(=O)O)C(=O)N[C@H](C(=O)N[C@H]2CCCCNC(=O)[C@H](CC(N)=O)NC(=O)[C@@H](CC(=O)O)NC(=O)[C@H](Cc3cnc[nH]3)NC(=O)[C@@H](Cc3ccccc3)NC(=O)[C@H]([C@@H](C)CC)NC(=O)[C@@H](CCCN)NC2=O)[C@@H](C)CC)CS1` [Bacitracin, bacitracin] ({Ileψ(thiazoline)Cys}-L[dE]IK[dOrn]I[dF]H[dD]N; lactam 4-C), the “Growth promotion in pigs (in words)” value [18] is listed as “known growth promoter in pigs”.

In the case of `CN[C@H](CC(C)C)C(=O)N[C@H]1C(=O)N[C@@H](CC(N)=O)C(=O)N[C@H]2C(=O)N[C@H]3C(=O)N[C@H](C(=O)N[C@H](C(=O)O)c4cc(O)cc(O)c4-c4cc3ccc4O)[C@H](O)c3ccc(c(Cl)c3)Oc3cc2cc(c3O[C@@H]2O[C@H](CO)[C@@H](O)[C@H](O)[C@H]2O[C@H]2C[C@](C)(N)[C@H](O)[C@H](C)O2)Oc2ccc(cc2Cl)[C@H]1O` [Vancomycin, vancomycin], the ED50 [19] is reported as 12.5 mg/kg, the ED50 [20] is reported as 1.4 mg/kg and the ED50 [21] is reported as 4.1 mg/kg. For the same molecule, the ED50 [22] was 4.8 mg/kg, the ED50 [23] was 6.7 mg/kg and the MIC [2] was 2 µg/mL (≈ 1.38 µM). The Isoelectric point [24] was 8.2, the MIC ([4]; Enterococcus faecalis, 34358) was 3.1 µg/mL (≈ 2.14 µM) and the MIC ([4]; Table B) was 3.1 µg/mL (≈ 2.14 µM). The MIC ([5]; Staphylococcus aureus, HH127) was 1.6 µg/mL (≈ 1.1 µM), the MIC ([5]; Table B) was 1.6 µg/mL (≈ 1.1 µM) and the MIC [6] was 2 µg/mL (≈ 1.38 µM). It also gave an MIC [7] of 3.1 µg/mL (≈ 2.14 µM), an MIC [8] of 100 µg/mL (≈ 69 µM) and an MIC [9] greater than 100 µg/mL. The MIC [10] was 3.1 µg/mL (≈ 2.14 µM), the MIC ([11]; Staphylococcus epidermidis, 2479) was 3.1 µg/mL (≈ 2.14 µM) and the MIC ([11]; Table B) was 3.1 µg/mL (≈ 2.14 µM). It also gave an MIC ([12]; Staphylococcus epidermidis) of 3.1 µg/mL (≈ 2.14 µM), an MIC [12, 27] of 3.1 µg/mL (≈ 2.14 µM) and an MIC [13] of 1.6 µg/mL (≈ 1.1 µM). The “Susceptibility (diffusion method)” value [25] was “resistant”, the MIC [14] was 3.1 µg/mL (≈ 2.14 µM) and the MIC [15] was 0.8 µg/mL (≈ 0.552 µM). The MIC [16] was 1.6 µg/mL (≈ 1.1 µM), the MIC [17] was 1.6 µg/mL (≈ 1.1 µM) and the Elimination half-life ([26]; mice) was 0.333 h. For the same molecule, the Cmax ([26]; mouse, serum) was 30000 ng/mL.
